Measured values published in patent US9808505B2, “Suppression of malignant mesothelioma by overexpression or stimulation of endothelial protein C receptors (EPCR)” (BOARD OF REGENTS, THE UNIVERSITY OF TEXAS SYSTEM, priority 2013, dated 2017).

B1: FVIIa: Recombinant human FVIIa from Novo Nordisk; clotting factor that initiates coagulation upon binding to TF (protein)
chain: ANAFLEELRPGSLERECKEEQCSFEEAREIFKDAERTKLFWISYSDGDQCASSPCQNGGSCKDQLQSYICFCLPAFEGRNCETHKDDQLICVNENGGCEQYCSDHTGTKRSCRCHEGYSLLADGVSCTPTVEYPCGKIPILEKRNASKPQGRIVGGKVCPKGECPWQVLLLVNGAQLCGGTLINTIWVVSAAHCFDKIKNWRNLIAVLGEHDLSEHDGDEQSRRVAQVIIPSTYVPGTTNHDIALLRLHQPVVLTDHVVPLCLPERTFSERTLAFVRFSLVSGWGQLLDRGATALELMVLNVPRLMTQDCLQQSRKVGDSPNITEYMFCAGYSDGSKDSCKGDSGGPHATHYRGTWYLTGIVSWGQGCATVGHFGVYTRVSQYIEWLQKLMRSEPRPGVLLRAPFP

Key:
Assay type in all cases: cell-based, human
REN MPM cells [1] = assay: Measurement of cytosolic Ca2+ release (Fluo-4 fluorescence microscopy); conditions: peptide 50 μM (FIG. 1E)
Protocol: Fluorescence microscopy was used for measurement of cytosolic Ca^2+ release as described earlier (34). MPM cells were seeded in 8-well chambered cover slips (Nunc, Rochester, N.Y.) at a density of 10,000 cells/well. After 24 h, cells were washed and incubated with 4 μM Fluo-4/AM Ester (Molecular Probes, Inc, Eugene, Oreg.) for 1 h in buffer B in a humidified atmosphere of 37° C./5% CO2. The cells were then washed with buffer B, and a chambered cover slip was placed on the stage of an inverted microscope (Axio Observer Z1) encased in an incubation chamber that maintained 37° C./5% CO2. Live images of cell fluorescence were recorded by exciting the Fluo-4 probe with 488 nm light and monitoring 530 nm emission using Carl Zeiss LSM 510 Meta Confocal Laser Scanning system. After 15 sec of image acquisition, PAR1 agonist peptide […]; SEQ ID NO:10)) or PAR2 agonist peptide (SLIGRL; (SEQ ID NO:11)) was added to the cells at a final concentration of 50 μM and the recording was continued for an additional 165 sec. Results are represented as change in fluorescence intensity over time.

REN MPM cells [2] = assay: Cell proliferation assay (BrdU incorporation) in MPM cells; conditions: for difference in cell proliferation between REN and REN(+EPCR): in vitro, presence or absence of ligand, FVIIa 10 nM, APC 20 nM, thrombin 10 nM, 24 h; for cell proliferation of REN cells in response to ligand (in words): wild-type REN cells in vitro, 10 nM ligand in SFM, 24 h (FIG. 8)
Protocol: Cell proliferation assay in MPM cells in the presence or absence of various ligands was performed using Apo-BrdU cell proliferation assay kit from Millipore (Temecula, Calif.) following the manufacturer's instructions. Briefly, MPM cells (7,500 cells/well) were seeded in 96-well plates in RPMI medium containing 10% FBS, and after 24 h the cells were washed once and maintained in serum-free medium (SFM). After 24 h, the cells were washed once with SFM and incubated with SFM or SFM containing FVIIa, APC, thrombin or serum (1%) for 24 h. Twenty μl of BrdU-labeling solution was added to each well 8 h prior to the completion of 24 h incubation with the test compound. The cells were fixed and processed for detection of BrdU incorporation by incubating the cells with an anti-BrdU antibody, followed by peroxidase-conjugated secondary antibody and then the substrate tetramethyl-benzidine with three washings in between each step. The color developed in the assay was measured as absorbance at 450 nm using the absorbance measured at 650 nm as a reference value in a microplate reader (Molecular Devices, Sunnyvale, Calif.).

REN MPM cells [3] = assay: Elaboration of proangiogenic factors on exposure to FVIIa; conditions: REN MPM cells in response to FVIIa
Protocol: To assess whether TF promotes tumor growth in MPM through elaboration of proangiogenic factors by direct signaling (as observed in breast cancer cells (38, 39)), studies were conducted here to examine whether exposure of REN MPM cells to FVIIa increased production of proangiogenic factors in these cells. […] Thus, it seems unlikely that TF-FVIIa-PAR1-mediated cell signaling promotes MPM tumor growth through elaboration of proangiogenic factors as previously speculated for promotion of tumor growth in breast cancer (21).

Molecule	intracellular Ca2+ release (REN MPM cells [1])	thrombin-induced cell proliferation in PAR1 knock-down cells (REN MPM cells [2]; REN cells with PAR1 knock-down (REN-P1KD))	difference in cell proliferation between REN and REN(+EPCR) (REN MPM cells [2])	cell proliferation of REN cells in response to ligand (in words) (REN MPM cells [2])	FVIIa-induced increase in cell proliferation in TF knock-down cells (REN MPM cells [2]; REN cells with TF knock-down (REN-TFKD))	increase in rate of cell proliferation (REN MPM cells [2]; naïve REN MPM cells, addition of FVIIa)	elaboration of proangiogenic factors, including IL-8, CCN1 and CCN2 (REN MPM cells [3])
TFLLRNPNDK [PAR1 agonist peptide]	induced intracellular Ca^2+ release	–	–	–	–	–	–
SLIGRL [PAR2 agonist peptide]	not	–	–	–	–	–	–
thrombin	–	diminished	no measurable differences	modest increase	–	–	–
B1	–	–	no measurable differences	modestly but consistently	abrogated	about 70%	robust or reproducible elaboration
